Test results taken from paper PMC5218480 (PLoS ONE, 2017).

Tested on: MV-4-11 cells
Experiment: Gene expression microarray analysis (Affymetrix PrimeView) and GSEA
Assay type: cell-based, human
Set-up: RFU PODN (11730768_x_at) / Fold change /veh PODN (11730768_x_at) / RFU LINC00158 (11744669_a_at) / Fold change /veh LINC00158 (11744669_a_at) / RFU DUSP10 (11751237_a_at) / Fold change /veh DUSP10 (11751237_a_at) / RFU ID3 (11757404_x_at) / Fold change /veh ID3 (11757404_x_at) / RFU PLEKHG5 (11737974_s_at) / Fold change /veh PLEKHG5 (11737974_s_at) / RFU LRRC4B (11730491_at) / Fold change /veh LRRC4B (11730491_at) / RFU GIMAP4 (11747438_a_at) / Fold change /veh GIMAP4 (11747438_a_at) / RFU KRT8 (11758183_x_at) / Fold change /veh KRT8 (11758183_x_at) / RFU CNN1 (11734310_a_at) / Fold change /veh CNN1 (11734310_a_at) / RFU VPS37D (11726825_at) / Fold change /veh VPS37D (11726825_at) / RFU C10orf10 (11716522_x_at) / Fold change /veh C10orf10 (11716522_x_at) / RFU KIR2DL2 /// KIR2DL4 /// KIR2DL5A /// KIR2DL5B /// KIR2DS1 /// KIR2DS2 /// KIR2DS3 /// KIR2DS4 /// KIR3DL3 /// KIR3DL3 /// KIR3DS1 (11738374_at) / Fold change /veh KIR2DL2 /// KIR2DL4 /// KIR2DL5A /// KIR2DL5B /// KIR2DS1 /// KIR2DS2 /// KIR2DS3 /// KIR2DS4 /// KIR3DL3 /// KIR3DL3 /// KIR3DS1 (11738374_at) / RFU C1QL1 (11718748_at) / Fold change /veh C1QL1 (11718748_at) / RFU TMPRSS4 (11747572_a_at) / Fold change /veh TMPRSS4 (11747572_a_at) / RFU HAMP (11756126_x_at) / Fold change /veh HAMP (11756126_x_at) / RFU RNFT2 (11725882_a_at) / Fold change /veh RNFT2 (11725882_a_at) / RFU NR4A2 (11747474_a_at) / Fold change /veh NR4A2 (11747474_a_at) / RFU ABCC12 (11746883_a_at) / Fold change /veh ABCC12 (11746883_a_at) / RFU TMEM136 (11760407_x_at) / Fold change /veh TMEM136 (11760407_x_at) / RFU CLDN22 /// WWC2 (11732394_at) / Fold change /veh CLDN22 /// WWC2 (11732394_at) / RFU HLA-DPB1 (11760878_x_at) / Fold change /veh HLA-DPB1 (11760878_x_at) / RFU SPINT1 (11716480_a_at) / Fold change /veh SPINT1 (11716480_a_at) / RFU GAP43 (11754022_s_at) / Fold change /veh GAP43 (11754022_s_at) / RFU A4GNT (11735810_at) / Fold change /veh A4GNT (11735810_at) / RFU PRB3 (11715151_x_at) / Fold change /veh PRB3 (11715151_x_at) / RFU TUBB4B (11761932_at) / Fold change /veh TUBB4B (11761932_at) / RFU CAPN14 (11732068_a_at) / Fold change /veh CAPN14 (11732068_a_at) / RFU TMCC2 (11721928_a_at) / Fold change /veh TMCC2 (11721928_a_at) / RFU IRGQ (11745062_a_at) / Fold change /veh IRGQ (11745062_a_at) / RFU FAM174B (11720279_a_at) / Fold change /veh FAM174B (11720279_a_at) / RFU TMPRSS4 (11748680_a_at) / Fold change /veh TMPRSS4 (11748680_a_at) / RFU FAM212B (11763350_a_at) / Fold change /veh FAM212B (11763350_a_at) / RFU PLEKHG5 (11743358_a_at) / Fold change /veh PLEKHG5 (11743358_a_at) / RFU ZSCAN30 (11745921_a_at) / Fold change /veh ZSCAN30 (11745921_a_at) / RFU CMKLR1 (11741424_a_at) / Fold change /veh CMKLR1 (11741424_a_at) / RFU LOC101060620 /// MAPK8IP1 (11723275_at) / Fold change /veh LOC101060620 /// MAPK8IP1 (11723275_at) / RFU SPTSSB (11747773_x_at) / Fold change /veh SPTSSB (11747773_x_at) / RFU PRSS12 (11739890_at) / Fold change /veh PRSS12 (11739890_at) / RFU BIN1 (11741810_x_at) / Fold change /veh BIN1 (11741810_x_at) / RFU WNT11 (11732464_a_at) / Fold change /veh WNT11 (11732464_a_at) / RFU C10orf10 (11716521_a_at) / Fold change /veh C10orf10 (11716521_a_at) / RFU C5orf56 (11738089_at) / Fold change /veh C5orf56 (11738089_at) / RFU CYB561 (11721691_x_at) / Fold change /veh CYB561 (11721691_x_at) / RFU ANKRD19P (11752326_a_at) / Fold change /veh ANKRD19P (11752326_a_at) / RFU OR2T12 /// OR2T33 /// OR2T8 (11738714_s_at) / Fold change /veh OR2T12 /// OR2T33 /// OR2T8 (11738714_s_at) / RFU VCAN (11748164_a_at) / Fold change /veh VCAN (11748164_a_at) / RFU JSRP1 (11732532_at) / Fold change /veh JSRP1 (11732532_at) / RFU KRTAP10-11 (11738290_x_at) / Fold change /veh KRTAP10-11 (11738290_x_at) / RFU MYO3A (11730013_a_at) / Fold change /veh MYO3A (11730013_a_at) / RFU EBF3 (11725865_a_at) / Fold change /veh EBF3 (11725865_a_at) / RFU CAMK2N1 (11719241_x_at) / Fold change /veh CAMK2N1 (11719241_x_at) / RFU C5orf56 (11738088_a_at) / Fold change /veh C5orf56 (11738088_a_at) / RFU OLFML3 (11715873_a_at) / Fold change /veh OLFML3 (11715873_a_at) / RFU LOC100653217 /// NTM (11731650_a_at) / Fold change /veh LOC100653217 /// NTM (11731650_a_at) / RFU MAPK11 (11762145_a_at) / Fold change /veh MAPK11 (11762145_a_at) / RFU FIZ1 (11724087_x_at) / Fold change /veh FIZ1 (11724087_x_at) / RFU OASL (11726364_x_at) / Fold change /veh OASL (11726364_x_at) / RFU SOX15 (11748057_x_at) / Fold change /veh SOX15 (11748057_x_at) / RFU CD79A (11719716_a_at) / Fold change /veh CD79A (11719716_a_at) / RFU HIST1H1D (11736915_at) / Fold change /veh HIST1H1D (11736915_at) / RFU CASKIN2 (11723855_a_at) / Fold change /veh CASKIN2 (11723855_a_at) / RFU LOC730098 (11760151_x_at) / Fold change /veh LOC730098 (11760151_x_at) / RFU OR4N2 (11742367_at) / Fold change /veh OR4N2 (11742367_at) / RFU PRRT2 (11749266_a_at) / Fold change /veh PRRT2 (11749266_a_at) / RFU SNX32 (11753110_a_at) / Fold change /veh SNX32 (11753110_a_at) / RFU CDHR5 (11726645_a_at) / Fold change /veh CDHR5 (11726645_a_at) / RFU RCAN1 (11760418_a_at) / Fold change /veh RCAN1 (11760418_a_at) / RFU FAM167A (11723789_a_at) / Fold change /veh FAM167A (11723789_a_at) / RFU FAM26E (11764081_at) / Fold change /veh FAM26E (11764081_at) / RFU ISYNA1 (11749810_s_at) / Fold change /veh ISYNA1 (11749810_s_at) / RFU ACY1 (11761880_at) / Fold change /veh ACY1 (11761880_at) / RFU 11764098_at / Fold change /veh 11764098_at / RFU SAMD14 (11745864_x_at) / Fold change /veh SAMD14 (11745864_x_at) / RFU NPB (11741838_a_at) / Fold change /veh NPB (11741838_a_at) / RFU TMPRSS6 (11731388_a_at) / Fold change /veh TMPRSS6 (11731388_a_at) / RFU KRTAP10-2 (11738614_at) / Fold change /veh KRTAP10-2 (11738614_at) / RFU ARHGAP8 /// PRR5-ARHGAP8 (11727945_x_at) / Fold change /veh ARHGAP8 /// PRR5-ARHGAP8 (11727945_x_at) / RFU KRTAP5-7 /// NADSYN1 (11734609_at) / Fold change /veh KRTAP5-7 /// NADSYN1 (11734609_at) / RFU RASL12 (11751679_a_at) / Fold change /veh RASL12 (11751679_a_at) / RFU CDKN2B (11736163_a_at) / Fold change /veh CDKN2B (11736163_a_at) / RFU PRF1 (11729649_at) / Fold change /veh PRF1 (11729649_at) / RFU, ZNF638 /// ZNF638-IT1 / Fold change vs veh, ZNF638 /// ZNF638-IT1 / RFU, PANK3 / Fold change vs veh, PANK3 / RFU, SH3YL1 / Fold change vs veh, SH3YL1 / RFU, ZEB2 / Fold change vs veh, ZEB2 / RFU, NRIP1 / Fold change vs veh, NRIP1 / RFU, PTTG1IP / Fold change vs veh, PTTG1IP / RFU, CAPN2 / Fold change vs veh, CAPN2 / RFU, MED14 / Fold change vs veh, MED14 / RFU, SNORA58 / Fold change vs veh, SNORA58 / RFU, C1orf63 / Fold change vs veh, C1orf63 / RFU, LRRFIP1 / Fold change vs veh, LRRFIP1 / RFU, NDUFAF7 / Fold change vs veh, NDUFAF7 / RFU, SLC12A2 / Fold change vs veh, SLC12A2 / RFU, IBTK / Fold change vs veh, IBTK / RFU, ESF1 / Fold change vs veh, ESF1 / Fold change vs veh, TMEM50B / RFU, TAOK1 / Fold change vs veh, TAOK1 / RFU, ACBD3 / Fold change vs veh, ACBD3 / RFU, TMA16 / Fold change vs veh, TMA16 / RFU, RWDD3 / Fold change vs veh, RWDD3 / RFU, BCAT1 / Fold change vs veh, BCAT1 / RFU, EDEM3 / Fold change vs veh, EDEM3 / RFU, TMEM33 / Fold change vs veh, TMEM33 / RFU, WDR75 / Fold change vs veh, WDR75 / RFU, AHCTF1 / Fold change vs veh, AHCTF1 / RFU, TFRC / Fold change vs veh, TFRC / RFU, ZDHHC17 / Fold change vs veh, ZDHHC17 / RFU, NOM1 / Fold change vs veh, NOM1 / RFU, ARL8B / Fold change vs veh, ARL8B / RFU, ZBTB11 / Fold change vs veh, ZBTB11 / RFU, TAMM41 / Fold change vs veh, TAMM41 / RFU, KIAA1704 /// LOC100996395 / Fold change vs veh, KIAA1704 /// LOC100996395 / RFU, ING1 / Fold change vs veh, ING1 / RFU, TRMT61B / Fold change vs veh, TRMT61B / RFU, FUBP3 / Fold change vs veh, FUBP3 / RFU, TP53 / Fold change vs veh, TP53 / RFU, TNKS2 / Fold change vs veh, TNKS2 / RFU, ZFP14 / Fold change vs veh, ZFP14 / RFU, ACTR2 / Fold change vs veh, ACTR2 / RFU, PPP3R1 / Fold change vs veh, PPP3R1 / RFU, PIK3R1 / Fold change vs veh, PIK3R1 / RFU, HNRNPA1 / Fold change vs veh, HNRNPA1 / RFU, RNF170 / Fold change vs veh, RNF170 / RFU, ZNF28 / Fold change vs veh, ZNF28 / RFU, RNGTT / Fold change vs veh, RNGTT / RFU, OGT / Fold change vs veh, OGT / RFU, BRD1 / Fold change vs veh, BRD1 / RFU, MARS / Fold change vs veh, MARS / RFU, ZNF655 / Fold change vs veh, ZNF655 / RFU, FAHD1 / Fold change vs veh, FAHD1 / RFU, BDP1 / Fold change vs veh, BDP1 / RFU, LRRCC1 / Fold change vs veh, LRRCC1 / RFU, ARID1A / Fold change vs veh, ARID1A / RFU, ZNF146 / Fold change vs veh, ZNF146 / RFU, ZNF330 / Fold change vs veh, ZNF330 / RFU, GPN3 / Fold change vs veh, GPN3 / RFU, C9orf123 / Fold change vs veh, C9orf123 / RFU, N4BP2L2 / Fold change vs veh, N4BP2L2 / RFU, ARFIP1 / Fold change vs veh, ARFIP1 / RFU, FAM179B / Fold change vs veh, FAM179B / RFU, BCL10 / Fold change vs veh, BCL10 / RFU, UHRF1BP1L / Fold change vs veh, UHRF1BP1L / RFU, BET1 / Fold change vs veh, BET1 / RFU, CNOT2 / Fold change vs veh, CNOT2 / RFU, ZNF268 / Fold change vs veh, ZNF268 / Fold change vs veh, ZNF507 / RFU, DGCR2 / Fold change vs veh, DGCR2 / RFU, WDSUB1 / Fold change vs veh, WDSUB1 / Fold change vs veh, HSP90B1 /// MIR3652 / RFU, ADSS / Fold change vs veh, ADSS / RFU, GK / Fold change vs veh, GK / RFU, ZNF148 / Fold change vs veh, ZNF148 / RFU, TAF9 / Fold change vs veh, TAF9 / RFU, SLC1A5 / Fold change vs veh, SLC1A5 / RFU, SLMO2 / Fold change vs veh, SLMO2 / RFU, ABCC4 / Fold change vs veh, ABCC4 / RFU, LOC101060439 /// RAP1B / Fold change vs veh, LOC101060439 /// RAP1B / RFU, RFX7 / Fold change vs veh, RFX7 / RFU, GTPBP10 / Fold change vs veh, GTPBP10 / RFU, CNEP1R1 / Fold change vs veh, CNEP1R1 / RFU, BIVM-ERCC5 /// ERCC5 / Fold change vs veh, BIVM-ERCC5 /// ERCC5 / RFU, ILF3 / Fold change vs veh, ILF3 / RFU 11762660_at / Fold change /veh 11762660_at / RFU VCAN (11757783_s_at) / Fold change /veh VCAN (11757783_s_at) / RFU DDX43 (11728927_at) / Fold change /veh DDX43 (11728927_at) / RFU KRT8 (11758188_x_at) / Fold change /veh KRT8 (11758188_x_at) / RFU NKD1 (11759106_at) / Fold change /veh NKD1 (11759106_at) / RFU SRD5A1 (11742802_a_at) / Fold change /veh SRD5A1 (11742802_a_at) / RFU TPSAB1 /// TPSB2 (11721975_s_at) / Fold change /veh TPSAB1 /// TPSB2 (11721975_s_at) / RFU GSTM3 (11746129_a_at) / Fold change /veh GSTM3 (11746129_a_at) / RFU IL23R (11737362_x_at) / Fold change /veh IL23R (11737362_x_at) / RFU TMEM51 (11727254_a_at) / Fold change /veh TMEM51 (11727254_a_at) / RFU PIWIL2 (11732686_x_at) / Fold change /veh PIWIL2 (11732686_x_at) / RFU ORM1 (11744905_x_at) / Fold change /veh ORM1 (11744905_x_at) / RFU CCDC152 (11743942_at) / Fold change /veh CCDC152 (11743942_at) / RFU ECM1 (11717891_a_at) / Fold change /veh ECM1 (11717891_a_at) / RFU IL23R (11748794_a_at) / Fold change /veh IL23R (11748794_a_at) / RFU TNFAIP8L3 (11732012_x_at) / Fold change /veh TNFAIP8L3 (11732012_x_at) / RFU MBOAT4 (11741988_at) / Fold change /veh MBOAT4 (11741988_at) / RFU 11764193_at / Fold change /veh 11764193_at / RFU TMEM53 (11763286_at) / Fold change /veh TMEM53 (11763286_at) / RFU MAGEB2 (11727129_at) / Fold change /veh MAGEB2 (11727129_at) / RFU TMEM200A (11744735_a_at) / Fold change /veh TMEM200A (11744735_a_at) / RFU CCDC152 (11751479_a_at) / Fold change /veh CCDC152 (11751479_a_at) / RFU FAM211A (11726209_a_at) / Fold change /veh FAM211A (11726209_a_at) / RFU RGS16 (11746705_a_at) / Fold change /veh RGS16 (11746705_a_at) / RFU VCAN (11755009_s_at) / Fold change /veh VCAN (11755009_s_at) / RFU RHOB (11743442_s_at) / Fold change /veh RHOB (11743442_s_at) / RFU RGS16 (11720943_a_at) / Fold change /veh RGS16 (11720943_a_at) / RFU RGS16 (11720944_at) / Fold change /veh RGS16 (11720944_at) / RFU, VPS4B / Fold change vs veh, VPS4B / RFU, CREB1 / Fold change vs veh, CREB1 / RFU, DNAJC13 / Fold change vs veh, DNAJC13 / RFU, GNAQ / Fold change vs veh, GNAQ / RFU, CDK5R1 / Fold change vs veh, CDK5R1 / RFU, ZRANB3 / Fold change vs veh, ZRANB3 / RFU, CUL4A / Fold change vs veh, CUL4A / RFU, CCNY / Fold change vs veh, CCNY / RFU, UFL1 / Fold change vs veh, UFL1 / RFU, COG3 / Fold change vs veh, COG3 / RFU, DIAPH2 / Fold change vs veh, DIAPH2 / RFU, SKA2 / Fold change vs veh, SKA2 / RFU, AFF3 / Fold change vs veh, AFF3 / RFU, LMF1 / Fold change vs veh, LMF1 / RFU, IPO11 / Fold change vs veh, IPO11 / RFU, DFFB / Fold change vs veh, DFFB / RFU, FOXP1 / Fold change vs veh, FOXP1 / RFU, CARD8 / Fold change vs veh, CARD8 / RFU, STRN3 / Fold change vs veh, STRN3 / RFU, ADK / Fold change vs veh, ADK / RFU, RASSF2 / Fold change vs veh, RASSF2 / RFU, WIPF1 / Fold change vs veh, WIPF1 / RFU, LARP1B / Fold change vs veh, LARP1B / RFU, RASA1 / Fold change vs veh, RASA1 / RFU, RB1 / Fold change vs veh, RB1 / RFU, PPFIA1 / Fold change vs veh, PPFIA1 / RFU, MAT2A / Fold change vs veh, MAT2A / RFU, CCT5 / Fold change vs veh, CCT5 / RFU, WDR92 / Fold change vs veh, WDR92 / RFU, CUX1 / Fold change vs veh, CUX1 / RFU, TTC7A / Fold change vs veh, TTC7A / RFU, TMEM135 / Fold change vs veh, TMEM135 / RFU, DEPTOR / Fold change vs veh, DEPTOR / RFU, CPM / Fold change vs veh, CPM / RFU, DNAJB6 / Fold change vs veh, DNAJB6 / RFU, CACNA2D3 / Fold change vs veh, CACNA2D3 / RFU, DTX4 / Fold change vs veh, DTX4 / RFU, TFCP2 / Fold change vs veh, TFCP2 / RFU, GMCL1 /// GMCL1P1 / Fold change vs veh, GMCL1 /// GMCL1P1 / RFU, AEBP2 / Fold change vs veh, AEBP2 / RFU, SNHG1 /// SNORD22 /// SNORD25 /// SNORD26 /// SNORD27 /// SNORD28 /// SNORD29 /// SNORD31 / Fold change vs veh, SNHG1 /// SNORD22 /// SNORD25 /// SNORD26 /// SNORD27 /// SNORD28 /// SNORD29 /// SNORD31 / Fold change (Aza/veh), C12orf56 (ProbeSet 11735607_a_at) / Fold change (ACY-1035/veh), C12orf56 (ProbeSet 11735607_a_at) / Fold change (Aza/veh), FGFR1OP (ProbeSet 11751329_s_at) / Fold change (ACY-1035/veh), FGFR1OP (ProbeSet 11751329_s_at) / Fold change (Aza/veh), VPS36 (ProbeSet 11739960_a_at) / Fold change (ACY-1035/veh), VPS36 (ProbeSet 11739960_a_at) / RFU SYPL1 (11715823_x_at) / Fold change /veh SYPL1 (11715823_x_at) / RFU IGFBP7 (11715501_s_at) / Fold change /veh IGFBP7 (11715501_s_at) / RFU REEP3 (11722064_at) / Fold change /veh REEP3 (11722064_at) / RFU IGLL1 (11728026_x_at) / Fold change /veh IGLL1 (11728026_x_at): dose or concentration left out as unconfirmed
Conditions: ProbeSet 11734782_x_at; LIST D

In the case of `Nc1ccc(-c2cccs2)cc1NC(=O)c1ccc2c(c1)cc(C1CC1)n2CCN1CCOCC1` [ACY-1035], the “Fold change vs veh, WDR92” value was 0.89.
